Results from US20230373938A1, “BENZOTHIAZOLE MEROTERPENOID COMPOUND AND DERIVATIVE THEREOF, AND PREPARATION METHOD THEREFOR AND USE THEREOF” (THIRD INSTITUTE OF OCEANOGRAPHY, MINISTRY OF NATURAL …, priority 2020, published 2023).

Key:
RXRalpha = biological target: T1, RXRalpha (Homo sapiens, UniProt P19793); assay: RXRalpha dual-luciferase reporter gene assay (transcriptional activity); type: cell-based; settings: 293T cells, in combination with agonist 9-cis-RA; dosed 12.5, 25, 50 μM for 12 h
T1 construct: expressed in transfected cells; host or cells: Human embryonic kidney cells (293T)
T1 sequence (P19793 1-462): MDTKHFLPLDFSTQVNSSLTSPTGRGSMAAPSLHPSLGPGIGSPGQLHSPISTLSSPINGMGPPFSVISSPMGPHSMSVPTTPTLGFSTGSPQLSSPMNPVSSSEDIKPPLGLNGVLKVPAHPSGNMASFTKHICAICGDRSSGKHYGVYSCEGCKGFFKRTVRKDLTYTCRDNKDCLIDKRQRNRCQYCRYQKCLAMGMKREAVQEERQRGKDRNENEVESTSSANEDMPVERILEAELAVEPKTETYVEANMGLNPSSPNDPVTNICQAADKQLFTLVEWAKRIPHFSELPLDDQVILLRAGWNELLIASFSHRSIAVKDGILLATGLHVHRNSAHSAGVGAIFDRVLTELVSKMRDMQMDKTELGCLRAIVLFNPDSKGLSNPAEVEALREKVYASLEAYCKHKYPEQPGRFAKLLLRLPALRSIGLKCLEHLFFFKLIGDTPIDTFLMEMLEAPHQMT
From the text: In this embodiment, a dual-luciferase reporter (DLR) assay system consisting of firefly luciferase (FL) reporter gene and Rellina luciferase (RL) reporter gene is used. The RL reporter gene is used as an internal control to normalize measurement results of the FL reporter gene. In cells lacking endogenous RXRalpha and necessary components for downstream signal transduction, a receptor RXRalpha and reporter gene containing RXRalpha response elements are introduced by transfection, so as to simply simulate a transcriptional activation process of a receptor in vivo.
In this embodiment, the following three groups are set: • Negative control group: culture solution of an equal amount, 0.1% DMSO, containing cells, without the compounds as represented by formulas I to III; • Positive control group: culture solution of an equal amount, added with an RXRalpha agonist 9-cis-retinoic acid with or without an antagonist UVI3003 respectively; • Treatment group: cell culture solutions added with an RXRalpha agonist 9-cis-retinoic acid and the compounds as represented by formulas I to III respectively.
Specific steps include: • (1) Cell culture and preparation of test solution • Human embryonic kidney cells (293T) are cultured in a DMEM medium containing 10% fetal bovine serum (FBS) in an incubator containing 5% CO2 at 37° C., and passaged regularly based on growth law of the cells. […]

RXRalpha-LBD protein = biological target: T2, RXRalpha-LBD protein (Homo sapiens, UniProt P19793); assay: Biacore (surface plasmon resonance) binding to RXRalpha-LBD protein; settings: Biacore T200, CM5 chip
T2 sequence (P19793 227-458 limits assumed): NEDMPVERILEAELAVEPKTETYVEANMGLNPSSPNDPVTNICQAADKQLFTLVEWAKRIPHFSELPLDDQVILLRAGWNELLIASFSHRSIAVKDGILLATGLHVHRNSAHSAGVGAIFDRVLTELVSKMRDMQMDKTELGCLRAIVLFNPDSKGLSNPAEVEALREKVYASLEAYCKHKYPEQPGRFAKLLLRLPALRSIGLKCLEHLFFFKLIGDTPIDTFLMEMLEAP
Procedure: A purified nuclear receptor RXRalpha-LBD protein is coupled with a CM5 chip of Biacore. Then the compounds to be tested are diluted with PBS to prepare solutions at different concentrations before sampling. When samples to be tested flow over the surface of the chip, the binding between biomolecules results in an increase in surface mass of a biosensor, so that refractive index changes. By monitoring angular variation of SPR, kinetic binding and dissociation constants, affinity and specificity of analytes can be automatically obtained. A BiacoreT200 detector can detect interaction between a target protein and the samples to be tested in real time, and binding strength is expressed in response unites (RU) (a change in concentration of binding substances on the chip surface by 1 pg/mm2 is defined as 1 RU). The compounds I to III are screened by Biacore technology, and a binding constant KD of small molecular compounds with RXRalpha-LBD is calculated based on a concentration gradient experiment.

C=C1CCC2C(C)(C)CCC[C@]2(C)[C@H]1Cc1cc(O)c(C)c2sc(C(=O)NCC(=O)O)nc12 (stereo partly drawn) [compound I, meroterpenthiazole A]
inhibition of the transcription of RXRalpha by 9-cis-RA (RXRalpha): inhibit the transcription of RXRalpha by 9-cis-RA in a concentration-dependent manner | binding mode to RXRalpha protein (RXRalpha-LBD protein): fast binding and fast dissociation mode | Kd (RXRalpha-LBD protein; concentration gradient, read-out: binding constant KD with RXRalpha-LBD): 12.3 µM
